Data taken from patent US8138168B1 (Takeda Pharmaceutical Company Limited, priority 2007, dated 2012).

Each molecule was assayed against T1, Recombinant human renin (Homo sapiens, UniProt P00797) (assay: In vitro enzymatic activity assay of renin inhibitors (fluorogenic peptide substrate)). Settings: not given.
T1 construct: isolate the active form (residues 67-406); made in house; host or cells: FreeStyle 293-F cells (transient expression of pcDNA3.1(+)/hREN)
T1 sequence (P00797 67-406): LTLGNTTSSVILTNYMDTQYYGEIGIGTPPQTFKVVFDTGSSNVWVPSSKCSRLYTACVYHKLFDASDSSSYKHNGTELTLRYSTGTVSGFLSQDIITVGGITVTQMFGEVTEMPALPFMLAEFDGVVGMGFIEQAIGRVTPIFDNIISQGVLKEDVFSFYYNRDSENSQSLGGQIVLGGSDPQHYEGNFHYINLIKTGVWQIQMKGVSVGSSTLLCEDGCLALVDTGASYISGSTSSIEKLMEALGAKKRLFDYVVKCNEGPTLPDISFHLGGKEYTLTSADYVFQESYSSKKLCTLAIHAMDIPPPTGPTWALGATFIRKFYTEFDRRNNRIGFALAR
Type: biochemical
Procedure, shortened: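 Recombinant human renin (3 nM final) pre-incubated 10 min at 37 °C with compounds in pH 7.4 Hepes/EDTA/DTT/0.1 mg/mL BSA/Brij35 buffer (optionally plus 2% BSA), 5% DMSO final; fluorogenic QXL520/HiLyteFluo488 peptide substrate added.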

SMILES | IC50 [nM]
COCCCn1c([C@@H]2CCCN(C(=O)[C@@H]3CN(C(=O)Oc4cccc(C(F)(F)F)c4)C[C@H]3N)C2)nc2ccccc21 [Compound 408, (3S,4R)-3-(trifluoromethyl)phenyl 3-amino-4-((R)-3-(1-(3-methoxypropyl)-1H-benzo[d]imidazol-2-yl)piperidine-1-carbonyl)pyrrolidine-1-carboxylate] | > 1000

Same assay, conditions: read-out: IC50 of Exemplified Compounds Against Renin

IC50 [nM] | SMILES
> 1000 | COCCCn1c([C@@H]2CCCN(C(=O)[C@@H]3CN(S(=O)(=O)c4cccc(OC(F)F)c4)C[C@H]3N)C2)nc2ccccc21 [Compound 419, ((3R,4S)-4-amino-1-(3-(difluoromethoxy)phenylsulfonyl)pyrrolidin-3-yl)((R)-3-(1-(3-methoxypropyl)-1H-benzo[d]imidazol-2-yl)piperidin-1-yl)methanone]
> 1000 | COCCCn1c([C@@H]2CCCN(C(=O)[C@H](Cc3ccccc3)C(N)Cc3ccc(Cl)cc3)C2)nc2ccccc21 (stereo partly drawn) [Compound 240, (R)-3-amino-2-benzyl-4-(4-chlorophenyl)-1-((R)-3-(1-(3-methoxypropyl)-1H-benzo[d]imidazol-2-yl)piperidin-1-yl)butan-1-one]
< 100 | CCOCCNC(=O)c1ccc(-c2ccc(C[C@@H](N)CC(=O)N3CCC[C@@H](c4nc5ccccc5n4CCCOC)C3)cc2)cc1 [Compound 178, 4′-((R)-2-amino-4-((R)-3-(1-(3-methoxypropyl)-1H-benzo[d]imidazol-2-yl)piperidin-1-yl)-4-oxobutyl)-N-(2-ethoxyethyl)biphenyl-4-carboxamide]
100 to 1000 | COCCCn1c([C@@H]2CCCN(C(=O)[C@@H]3CN(S(=O)(=O)c4cccc(Cl)c4Cl)C[C@H]3N)C2)nc2ccccc21 [Compound 363, ((3R,4S)-4-amino-1-(2,3-dichlorophenyisulfonyl)pyrrolidin-3-yl)((R)-3-(1-(3-methoxypropyl)-1H-benzo[d]imidazol-2-yl)piperidin-1-yl)methanone]
100 to 1000 | COCCCn1c([C@@H]2CCCN(C(=O)C[C@H](N)CNC(=O)Nc3ccc(OC)cc3OC)C2)nc2ccccc21 [Compound 279, 1-((S)-2-amino-4-((R)-3-(1-(3-methoxypropyl)-1H-benzo[d]imidazol-2-yl)piperidin-1-yl)-4-oxobutyl)-3-(2,4-dimethoxyphenyl)urea]
100 to 1000 | COCCCn1c([C@@H]2CCCN(C(=O)C[C@H](N)CNC(=O)c3ccccc3Cl)C2)nc2ccccc21 [Compound 320, N-((S)-2-amino-4-((R)-3-(1-(3-methoxypropyl)-1H-benzo[d]imidazol-2-yl)piperidin-1-yl)-4-oxobutyl)-2-chlorobenzamide]
< 100 | COCCCn1c([C@@H]2CCCN(C(=O)C[C@H](N)Cc3ccc(-c4ccc(O)nc4)cc3)C2)nc2c(F)cccc21 [Compound 451, (R)-3-amino-1-((R)-3-(4-fluoro-1-(3-methoxypropyl)-1H-benzo[d]imidazol-2-yl)piperidin-1-yl)-4-(4-(6-hydroxypyridin-3-yl)phenyl)butan-1-one]
100 to 1000 | COCCCn1c([C@@H]2CCCN(C(=O)[C@@H]3CN(S(=O)(=O)c4ccccc4C(=O)OC)C[C@H]3N)C2)nc2ccccc21 [Compound 373, methyl 2-((3S,4R)-3-amino-4-((R)-3-(1-(3-methoxypropyl)-1H-benzo[d]imidazol-2-yl)piperidine-1-carbonyl)pyrrolidin-l-ylsulfonyl)benzoate]
< 100 | COCCCn1c([C@@H]2CCCN(C(=O)C[C@H](N)Cc3ccc(-c4ccc5c(c4)SCC(=O)N5)cc3)C2)nc2c(F)cccc21 [Compound 442, 7-(4-((R)-2-amino-4-((R)-3-(4-fluoro-1-(3-methoxypropyl)-1H-benzo[d]imidazol-2-yl)piperidin-1-yl)-4-oxobutyl)phenyl)-2H-benzo[b][1,4]thiazin-3(4H)-one]
< 100 | COCCCn1c([C@@H]2CCCN(C(=O)C[C@H](N)Cc3ccc(-c4ccc(C(=O)N5CC[C@@H](O)C5)cc4)cc3)C2)nc2ccccc21 [Compound 185, (R)-3-amino-4-(4′-((R)-3-hydroxypyrrolidine-1-carbonyl)biphenyl-4-yl)-1-((R)-3-(1-(3-methoxypropyl)-1H-benzo[d]imidazol-2-yl)piperidin-1-yl)butan-1-one]
> 1000 | COCCCn1c([C@@H]2CCCN(C(=O)[C@@H]3CN(S(=O)(=O)c4cc(Br)ccc4OC)C[C@H]3N)C2)nc2ccccc21 [Compound 401, ((3R,4S)-4-amino-1-(5-bromo-2-methoxyphenylsulfonyl)pyrrolidin-3-yl)((R)-3-(1-(3-methoxypropyl)-1H-benzo[d]imidazol-2-yl)piperidin-l-yl)methanone]
100 to 1000 | COCCCn1c([C@@H]2CCCN(C(=O)C[C@H](N)CNC(=O)c3ccc4c(c3)CCO4)C2)nc2ccccc21 [Compound 271, N-((S)-2-amino-4-((R)-3-(1-(3-methoxypropyl)-1H-benzo[d]imidazol-2-yl)piperidin-1-yl)-4-oxobutyl)-2,3-dihydrobenzofuran-5-carboxamide]
100 to 1000 | COCCCn1c([C@@H]2CCCN(C(=O)C[C@H](N)Cc3ccc(Br)cc3)C2)nc2ccccc21 [Compound 91, (R)-3-amino-4-(4-bromophenyl)-1((R)-3-(1-(3-methoxypropyl)-1H-benzo[d]imidazol-2-yl)piperidin-1-yl)butan-1-one]
> 1000 | COCCCn1c([C@@H]2CCCN(C(=O)[C@@H]3CN(C(=O)Nc4ccc(OC)cc4)C[C@H]3N)C2)nc2ccccc21 [Compound 415, (3S,4R)-3-amino-N-(4-methoxyphenyl)-4-((R)-3-(1-(3-methoxypropyl)-1H-benzo[d]imidazol-2-yl)piperidine-1-carbonyl)pyrrolidine-1-carboxamide]
> 1000 | COCCCn1c([C@@H]2CCCN(C(=O)[C@@H]3CN(C(=O)NC4CCCC4)C[C@H]3N)C2)nc2ccccc21 [Compound 399, (3S,4R)-3-amino-N-cyclopentyl-4-((R)-3-(1-(3-methoxypropyl)-1H-benzo[d]imidazol-2-yl)piperidine-1-carbonyl)pyrrolidine-1-carboxamide]
< 100 | COCCCn1c([C@@H]2CCCN(C(=O)C[C@H](N)Cc3ccc(-c4ccc5c(c4)CC(=O)N5C)cc3)C2)nc2c(C)cccc21 [Compound 498, 5-(4-((R)-2-amino-4-((R)-3-(1-(3-methoxypropyl)-4-methyl-1H-benzo[d]imidazol-2-yl)piperidin-1-yl)-4-oxobutyl)phenyl)-1-methylindolin-2-one]
> 1000 | COCCCc1nc2ccccc2n1[C@@H]1CCCN(C(=O)C[C@H](N)Cc2ccc3ccccc3c2)C1 [Compound 243, (R)-3-amino-1-((R)-3-(2-(3-methoxypropyl)-1H-benzo[d]imidazol-1-yl)piperidin-1-yl)-4-(naphthalen-2-yl)butan-1-one]
100 to 1000 | CC(=O)NCCn1c([C@@H]2CCCN(C(=O)C[C@H](N)Cc3ccc(-c4ccc5c(c4)OCCO5)cc3)C2)nc2ccccc21 [Compound 449, N-(2-(2-((R)-1-((R)-3-amino-4-(4-(2,3-dihydrobenzo[b][1,4]dioxin-6-yl)phenyl)butanoyl)piperidin-3-yl)-1H-benzo[d]imidazol-1-yl)ethyl)acetamide]
100 to 1000 | CC(=O)NCCn1c([C@@H]2CCCN(C(=O)C[C@H](N)Cc3ccc(-c4ccc(O)nc4)cc3)C2)nc2c(Cl)cccc21 [Compound 478, N-(2-(2-((R)-1-((R)-3-amino-4-(4-(6-hydroxypyridin-3-yl)phenyl)butanoyl)piperidin-3-yl)-4-chloro-1H-benzo[d]imidazol-1-yl)ethyl)acetamide]
